{"source": "ChEMBL document CHEMBL6134930", "about": "“Discovery of AB801, a Potent and Selective Inhibitor of AXL Receptor Tyrosine Kinase for Use in Cancer Therapy” (J Med Chem, 2025)", "key": {"[1]": {"assay": "Metabolic stability in human hepatocytes assessed as intrinsic clearance measured per 10^6 cells", "type": "ADME, cell-based, Hepatocyte", "conditions": "read-out: CLH"}, "[2]": {"target": "T1, Tyrosine-protein kinase receptor UFO (Homo sapiens, UniProt P30530)", "T1 sequence (P30530 whole entry)": "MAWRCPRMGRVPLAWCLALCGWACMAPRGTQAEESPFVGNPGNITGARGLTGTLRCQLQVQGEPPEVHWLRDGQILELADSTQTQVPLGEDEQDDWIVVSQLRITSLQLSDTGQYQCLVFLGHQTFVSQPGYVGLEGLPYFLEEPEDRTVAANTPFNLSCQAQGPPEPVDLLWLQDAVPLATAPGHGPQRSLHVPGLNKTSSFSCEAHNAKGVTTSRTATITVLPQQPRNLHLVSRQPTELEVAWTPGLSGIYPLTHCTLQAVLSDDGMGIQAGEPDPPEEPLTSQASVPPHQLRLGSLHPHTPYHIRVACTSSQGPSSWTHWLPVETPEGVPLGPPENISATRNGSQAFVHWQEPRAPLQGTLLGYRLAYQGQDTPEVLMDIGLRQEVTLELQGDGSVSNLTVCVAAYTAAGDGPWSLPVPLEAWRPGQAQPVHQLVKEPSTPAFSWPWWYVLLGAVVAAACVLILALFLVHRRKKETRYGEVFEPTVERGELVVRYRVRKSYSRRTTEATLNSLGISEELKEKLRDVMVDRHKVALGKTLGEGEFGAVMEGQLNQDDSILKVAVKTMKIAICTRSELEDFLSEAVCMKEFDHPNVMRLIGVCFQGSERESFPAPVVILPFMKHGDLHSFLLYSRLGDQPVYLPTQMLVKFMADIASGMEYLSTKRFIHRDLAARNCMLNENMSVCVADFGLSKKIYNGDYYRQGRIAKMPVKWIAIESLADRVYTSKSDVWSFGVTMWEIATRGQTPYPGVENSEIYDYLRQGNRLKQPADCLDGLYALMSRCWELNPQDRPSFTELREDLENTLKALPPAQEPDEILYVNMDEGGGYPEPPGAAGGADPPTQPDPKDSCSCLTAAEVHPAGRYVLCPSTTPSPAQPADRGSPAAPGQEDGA", "assay": "Inhibition of autophosphorylation AXL (unknown origin) expressed in HEK293 cells assessed as NanoLuc activity associated with phosphorylated proteins measured after 1 hr incubation by intracellular pAXL-ELISA", "type": "cell-based"}, "hERG (KCNH2)": {"target": "hERG (KCNH2) (Homo sapiens, UniProt Q12809)", "sequence (Q12809 whole entry)": "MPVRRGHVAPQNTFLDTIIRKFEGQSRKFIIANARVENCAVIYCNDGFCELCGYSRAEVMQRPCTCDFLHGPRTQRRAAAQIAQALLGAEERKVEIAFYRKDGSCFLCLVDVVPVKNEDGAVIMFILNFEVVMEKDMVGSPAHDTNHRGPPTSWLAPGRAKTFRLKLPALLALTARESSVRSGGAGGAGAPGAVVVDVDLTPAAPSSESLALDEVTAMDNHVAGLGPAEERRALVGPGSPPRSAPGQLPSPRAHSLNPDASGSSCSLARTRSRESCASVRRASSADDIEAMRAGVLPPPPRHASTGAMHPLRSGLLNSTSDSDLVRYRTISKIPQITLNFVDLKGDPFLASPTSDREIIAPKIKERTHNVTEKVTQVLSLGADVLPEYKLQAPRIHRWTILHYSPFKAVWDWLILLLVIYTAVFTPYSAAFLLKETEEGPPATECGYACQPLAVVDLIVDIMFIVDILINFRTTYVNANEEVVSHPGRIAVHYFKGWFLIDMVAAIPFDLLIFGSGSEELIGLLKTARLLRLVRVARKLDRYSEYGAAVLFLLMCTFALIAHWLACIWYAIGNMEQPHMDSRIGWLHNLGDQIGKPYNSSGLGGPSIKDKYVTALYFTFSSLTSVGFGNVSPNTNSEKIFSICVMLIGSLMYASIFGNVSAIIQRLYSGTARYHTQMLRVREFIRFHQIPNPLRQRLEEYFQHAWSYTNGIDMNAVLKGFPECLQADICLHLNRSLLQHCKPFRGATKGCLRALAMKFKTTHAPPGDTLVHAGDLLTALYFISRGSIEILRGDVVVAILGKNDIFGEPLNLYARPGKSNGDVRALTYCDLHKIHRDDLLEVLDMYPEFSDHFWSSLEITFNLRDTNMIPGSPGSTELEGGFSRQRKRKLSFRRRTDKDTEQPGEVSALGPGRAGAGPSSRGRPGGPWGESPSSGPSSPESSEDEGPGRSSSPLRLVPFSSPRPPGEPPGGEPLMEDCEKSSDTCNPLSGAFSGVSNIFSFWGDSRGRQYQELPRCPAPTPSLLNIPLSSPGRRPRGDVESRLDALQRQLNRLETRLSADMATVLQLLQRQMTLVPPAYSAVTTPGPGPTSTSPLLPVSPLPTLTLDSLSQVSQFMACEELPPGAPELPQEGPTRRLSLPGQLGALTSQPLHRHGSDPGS", "assay": "Inhibition of hERG at 10 uM by high throughput cell based patch clamp assay", "type": "toxicity"}, "CYP2B6": {"target": "T2, CYP2B6 (Homo sapiens, UniProt P20813)", "T2 sequence (P20813 whole entry)": "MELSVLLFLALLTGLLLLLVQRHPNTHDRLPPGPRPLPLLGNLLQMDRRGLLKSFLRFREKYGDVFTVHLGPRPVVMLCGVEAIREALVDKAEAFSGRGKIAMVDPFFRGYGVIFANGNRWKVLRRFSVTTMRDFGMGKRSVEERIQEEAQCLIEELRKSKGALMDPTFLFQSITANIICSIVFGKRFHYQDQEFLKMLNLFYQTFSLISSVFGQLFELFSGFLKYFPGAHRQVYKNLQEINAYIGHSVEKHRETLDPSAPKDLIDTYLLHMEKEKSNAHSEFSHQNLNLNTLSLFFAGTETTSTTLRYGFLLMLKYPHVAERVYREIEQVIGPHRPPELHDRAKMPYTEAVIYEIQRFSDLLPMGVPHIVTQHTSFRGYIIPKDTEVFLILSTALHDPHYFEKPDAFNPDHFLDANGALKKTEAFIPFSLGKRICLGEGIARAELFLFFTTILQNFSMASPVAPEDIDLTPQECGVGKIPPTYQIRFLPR", "assay": "Time dependent inhibition of CYP2B6 (unknown origin) at 30 uM measured after 30 mins relative to control", "type": "ADME", "conditions": "read-out: TDI"}, "Cytochrome P450 2B6": {"target": "T3, Cytochrome P450 2B6 (Homo sapiens, UniProt P20813)", "T3 sequence (P20813 whole entry)": "T2 sequence (P20813 whole entry)", "assay": "Inhibition of CYP2B6 (unknown origin) measured after 30 mins", "type": "ADME"}, "Cytochrome P450 2C19": {"target": "Cytochrome P450 2C19 (Homo sapiens, UniProt P33261)", "sequence (P33261 whole entry)": "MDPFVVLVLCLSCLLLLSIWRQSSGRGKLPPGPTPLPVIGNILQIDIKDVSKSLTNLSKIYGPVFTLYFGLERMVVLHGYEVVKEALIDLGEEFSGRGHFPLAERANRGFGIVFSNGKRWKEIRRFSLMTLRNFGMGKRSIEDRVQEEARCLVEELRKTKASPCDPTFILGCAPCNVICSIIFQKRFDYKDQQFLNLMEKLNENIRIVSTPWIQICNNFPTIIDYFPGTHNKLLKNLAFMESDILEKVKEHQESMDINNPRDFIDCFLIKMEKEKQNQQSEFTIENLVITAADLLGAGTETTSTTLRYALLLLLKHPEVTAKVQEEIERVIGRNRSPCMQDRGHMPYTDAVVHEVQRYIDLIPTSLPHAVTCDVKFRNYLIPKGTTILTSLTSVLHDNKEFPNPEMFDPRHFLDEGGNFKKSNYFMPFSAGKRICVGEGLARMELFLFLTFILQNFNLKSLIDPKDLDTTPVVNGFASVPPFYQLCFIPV", "assay": "Inhibition of CYP2C19 (unknown origin) measured after 30 mins", "type": "ADME"}, "786-0": {"test_system": "786-0", "assay": "Anti-tumor activity against human 786-0 cells xenografted in mouse model assessed as increase in soluble AXL level in plasma at 30 mg/kg, po once daily for 15 days", "type": "functional, organism-based", "conditions": "time 15.0 day"}, "[3]": {"assay": "Half life in human (healthy individuals) at 10 mg, single oral dose", "type": "ADME", "conditions": "in vivo"}, "[4]": {"assay": "Tmax in human (healthy individuals) at 30 mg, single oral dose", "type": "ADME", "conditions": "in vivo"}, "[5]": {"assay": "AUC (0 to 120 hrs) in human (healthy individuals) at 10 mg, single oral dose", "type": "ADME", "conditions": "in vivo"}, "[6]": {"assay": "AUC (0 to 120 hrs) in human (healthy individuals) at 270 mg, single oral dose", "type": "ADME", "conditions": "in vivo"}}, "note": "Active and inactive are the calls of the source. The calls are words filed in the database; no cut-off is given here."}
{"smiles": "Cc1cccnc1-c1ccc(-c2n[nH]c3ncc(-c4ccc5c(c4)CC[C@@H](N4C6COCC4C6)CC5)cc23)nc1", "values": [{"measurement": "hepatocyte CLint", "setting": "[1]", "result": 1.8, "unit": "µL/min/1e6 cells"}, {"measurement": "IC50", "setting": "[2]", "result": 0.069, "unit": "µM"}, {"measurement": "inhibition at 10 µM", "setting": "hERG (KCNH2)", "result": 56, "unit": "%"}, {"measurement": "inhibition at 0.5 h, 30 µM", "setting": "CYP2B6", "result": 12, "unit": "%"}, {"measurement": "IC50", "setting": "Cytochrome P450 2B6", "result": "> 100", "unit": "µM"}, {"measurement": "IC50", "setting": "Cytochrome P450 2C19", "result": 17, "unit": "µM"}, {"measurement": "Activity", "setting": "786-0", "result": "Active"}, {"measurement": "half-life", "setting": "[3]", "result": 70, "unit": "h"}, {"measurement": "Tmax", "setting": "[4]", "result": 8, "unit": "h"}, {"measurement": "AUC(0-t)", "setting": "[5]", "result": 180, "unit": "ng·h/mL"}, {"measurement": "AUC(0-t)", "setting": "[6]", "result": 7490, "unit": "ng·h/mL"}]}
